Data from PMC12920416, “Preclinical development of [^18F]TAAR1-2203 as a PET radioligand for imaging TAAR1 expression and receptor occupancy” (European Journal of Nuclear Medicine and Molecular Imaging, 2025).

Columns and labels:
[1] = Serum stability, human serum; assay type: in vitro ADME; settings: 60 min, 37 °C
Protocol: The stability of [^18F]TAAR1-2203 was assessed in mouse, rat, NHP, and human serum. Aliquots (400 µL) of serum were preincubated at 37 °C for 5 min, followed by the addition of [^18F]TAAR1-2203 (20 µL, 300 µCi/11.1 MBq). After 60 min, 200 µL of each sample was collected, quenched with ice-cold MeCN (200 µL), centrifuged at 10,000 g for 5 min, and analyzed by radio-HPLC (XBridge C18 column, 3.5 μm, 4.6 mm × 150 mm; CH3CN/H2O 35:65 with 0.1% TEA; flow rate 1.0 mL/min). Experiments in PBS served as negative controls, and benfluorex hydrochloride was used as a positive control.

[2] = Microsomal stability, rat liver microsomes; assay type: in vitro ADME; settings: after 60 min, 37 °C, printed as rodent microsomes
Protocol: (§1) Microsomal stability of [^18F]TAAR1-2203 was evaluated using mouse, rat, NHP, and human liver microsomes. Potassium phosphate buffer (340 µL, 0.5 M, pH 7.4) was combined with NADPH regenerating solution (40 µL, 10 mM). Radiotracer solution (10 µL, 150 µCi, 5.5 MBq) was added, and the mixture was preincubated at 37 °C for 5 min. Liver microsomes (20 µL) were subsequently added. Incubations were carried out at 37 °C with gentle shaking. At 30 and 60 min, 200 µL aliquots were quenched with ice-cold MeCN (200 µL), centrifuged at 10,000 g for 5 min, and analyzed using an AR-2000 radio-TLC imaging scanner (Eckert & Ziegler).

[3] = Microsomal stability, NHP liver microsomes; assay type: in vitro ADME, non-human primate; settings: after 60 min, 37 °C
Protocol: as §1

[4] = Plasma protein binding of tracer, human plasma; assay type: in vitro ADME; settings: radiotracer, 10 min incubation, ultrafiltration, read-out: Free fraction in human plasma
Protocol: Plasma protein binding of [^18F]TAAR1-2203 was determined in mouse, rat, NHP, and human plasma. Plasma samples (150 µL, n = 3) were preincubated at 37 °C for 5 min before addition of [^18F]TAAR1-2203 (10 µCi, 0.37 MBq). After 10 min of incubation, 300 µL of ice-cold PBS were added. Samples (300 µL) were then transferred onto Amicon® centrifugal filter units (10 kDa cut-off) and centrifuged at 2100 g for 15 min at 4 °C. Filtrates were washed with 300 µL PBS and centrifuged again. Radioactivity in the filtrate and protein-bound fractions was measured using a Packard Cobra 5002/5003 gamma counter.

TAAR1 [5] = biological target: T1, TAAR1 (Mus musculus, UniProt Q923Y8); assay: In vitro autoradiography, mouse pancreas and kidney sections; assay type: binding, CD1 mice; settings: tracer 5–8 nM; blockade with RO5333943 or RO5425754 at 10 µM
T1 construct: peripheral organs that express endogenous TAAR1; tissue Charles River (wild-type); F. Hoffmann-La Roche Ltd. (TAAR1 knock-out and matched controls); host or cells: mouse pancreas, kidney, liver, brain
Protocol: (§2) In vitro autoradiography experiments with [^18F]TAAR1-2203 were conducted on mouse and rat pancreas, kidney and brain tissue sections, respectively. Tissue Sect. (20 μm) were thawed on ice for 10 min and preincubated in assay buffer (50 mM Tris, pH 7.4) for 10 min. Subsequently, sections were incubated with [^18F]TAAR1-2203 for 40 min at ambient temperature. For blocking studies, structurally distinct TAAR1 agonists, RO5333943 or RO5425754, were added in excess to the assay buffer at a final concentration of 10 µM. After incubation, sections were washed in assay buffer for 2 min on ice and dipped briefly in water (2 × 5 s), followed by drying and exposure to a phosphor imager plate for 60 min. Imager plates were scanned on an Amersham Typhoon analyzer system, and images were analyzed using ImageQuant TL 8.1, as previously reported.

TAAR1 [6] = biological target: T2, TAAR1 (Rattus norvegicus, UniProt Q923Y9); assay: In vitro autoradiography, rat pancreas and kidney sections; assay type: binding, Sprague Dawley rats; settings: tracer 5–8 nM; blockade with RO5333943 or RO5425754 at 10 µM
T2 construct: peripheral organs that express endogenous TAAR1; tissue Charles River; host or cells: rat pancreas, kidney
Protocol: as §2

TAAR1 [7] = biological target: T1, TAAR1; assay: In vitro autoradiography, TAAR1 knockout vs wild-type mouse tissue sections; assay type: binding
Protocol: as §2

[8] = Ex vivo radiometabolite analysis; assay type: in vivo, CD1 mice; settings: 30 min post-injection, n = 3
Protocol: Female CD1 mice (20 weeks old, n = 3) were injected with [^18F]TAAR1-2203 (100 µCi, 3.7 MBq) and sacrificed 30 min post-injection. Brain, pancreas, and plasma samples were collected. Organs were homogenized in ice-cold acetonitrile (CH3CN). Plasma was obtained by centrifugation at 1400 rpm for 5 min at 4 °C, and proteins were precipitated with repeated CH3CN extraction until clear supernatants were obtained. Analytical samples were spiked with non-radioactive TAAR1-2203 and analyzed by radio-HPLC (XBridge C18 column; CH3CN/H₂O 35:65, with 0.1% TEA; flow rate 1.0 mL/min). Parent tracer fractions were determined as the percentage of intact [^18F]TAAR1-2203 relative to total detected radioactivity.

T1 sequence (Q923Y8 whole entry): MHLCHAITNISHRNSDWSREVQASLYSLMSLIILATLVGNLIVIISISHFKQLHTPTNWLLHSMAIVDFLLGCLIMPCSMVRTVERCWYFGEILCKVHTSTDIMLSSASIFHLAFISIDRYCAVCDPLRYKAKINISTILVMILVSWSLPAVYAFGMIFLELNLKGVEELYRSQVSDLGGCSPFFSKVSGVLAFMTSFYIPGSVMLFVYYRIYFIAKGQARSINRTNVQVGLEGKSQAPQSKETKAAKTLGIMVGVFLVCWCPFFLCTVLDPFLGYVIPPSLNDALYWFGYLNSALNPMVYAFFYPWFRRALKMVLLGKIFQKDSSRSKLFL
T2 sequence (Q923Y9 whole entry): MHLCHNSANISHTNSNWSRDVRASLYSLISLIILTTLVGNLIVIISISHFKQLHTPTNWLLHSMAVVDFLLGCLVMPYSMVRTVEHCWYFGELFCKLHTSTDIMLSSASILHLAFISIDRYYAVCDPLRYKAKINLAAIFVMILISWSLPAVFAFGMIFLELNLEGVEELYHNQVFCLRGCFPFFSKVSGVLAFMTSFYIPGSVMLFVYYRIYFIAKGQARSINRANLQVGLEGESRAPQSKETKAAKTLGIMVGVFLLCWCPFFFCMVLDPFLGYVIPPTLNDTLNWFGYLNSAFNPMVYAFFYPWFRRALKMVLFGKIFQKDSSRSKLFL

Structure (SMILES): Cc1c([18F])cccc1[C@H]1COC(N)=N1 [[^18F]TAAR1-2203]
- Intact parent tracer in human serum [1]: > 99%
- Intact tracer in rat liver microsomes [2]: > 98%
- Intact tracer in NHP liver microsomes [3]: > 99%
- fraction unbound at 10 min [4]: ~0.6
- Reduction of tracer binding, mouse kidney (TAAR1 [5]): greater than 70%
- Reduction of tracer binding, mouse pancreas (TAAR1 [5]): more than 50%
- Reduction of tracer binding, rat kidney (TAAR1 [6]): greater than 70%
- Reduction of tracer binding, rat pancreas (TAAR1 [6]): more than 50%
- Tracer signal in brain tissue, TAAR1 KO vs WT mice (TAAR1 [7]): comparably low in both WT and KO animals
- Change in tracer binding in kidney of TAAR1 KO vs WT mice (TAAR1 [7]; n = 6, p < 0.001): −50%
- Change in tracer binding in pancreas of TAAR1 KO vs WT mice (TAAR1 [7]; n = 6, p < 0.001): −32%
- Parent tracer fraction in brain [8]: exceeded 80%
- Parent tracer fraction in pancreas [8]: exceeded 80%
- Parent tracer fraction in plasma [8]: exceeded 80%
